# In PubChem BioAssay AID1259411 (Chemical Carcinogenesis Research Information System (CCRIS), 2018):
# Activity calls are given as the source filed them. No rule for the calls is given here.
# Test system: rodent carcinogenicity bioassays, tumor incidence
# Test: CCRIS carcinogenicity studies
# In short: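 Archive of carcinogenicity, mutagenicity, tumor promotion and tumor inhibition results drawn from journals, NCI reports and other sources, expert-reviewed; covers 1985-2011 and is no longer updated.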
compound,measurement,setting,value
CN(C)c1ccc2nc3ccc(=[N+](C)C)cc-3sc2c1,carcinogen call,"Species: Mouse, Strain/Sex: B6C3F1/Female, Route: Oral, Dose: 0, 2.5, 12.5, 25 mg/kg 5 d per wk for 2 yr, Dose: 0, 2.5, 12.5, 25 mg/kg 5 d per wk for 2 yr, Tumor Site: Type of Lesion: Lymphatic system: Malignant lymphomas (6/50; 4/50; 9/50; 12/50) (Marginal increase)",equivocal
same,carcinogen call,"Species: Mouse, Strain/Sex: B6C3F1/Male, Route: Oral, Dose: 0, 2.5, 12.5, 25 mg/kg 5 d per wk for 2 yr, Dose: 0, 2.5, 12.5, 25 mg/kg 5 d per wk for 2 yr, Tumor Site: Type of Lesion: Small intestine: Carcinomas (0/50; 1/50; 2/50; 4/50), Adenomas or carcinomas (1/50; 2/50; 4/50; 6/50) (incidences not st, Tumor Site: Type of Lesion: Small intestine: Carcinomas (0/50; 1/50; 2/50; 4/50), Adenomas or carcinomas (1/50; 2/50; 4/50; 6/50) (incidences not st",active; positive (for lymphoma only at high does) (ntp describes results as some evidenc
same,carcinogen call,"Species: Rat, Strain/Sex: F344/Female, Route: Oral, Dose: 0, 5, 25, 50 mg/kg 5 d per wk for 2 yr, Dose: 0, 5, 25, 50 mg/kg 5 d per wk for 2 yr",inactive; negative
same,carcinogen call,"Species: Rat, Strain/Sex: F344/Male, Route: Oral, Dose: 0, 5, 25, 50 mg/kg 5 d per wk for 2 yr, Dose: 0, 5, 25, 50 mg/kg 5 d per wk for 2 yr, Tumor Site: Type of Lesion: Pancreas: Pancreatic islet adenomas (4/50; 9/50; 12/50; 8/50), Pancreatic islet adenomas or carcinomas (4/50, 9/50, 14/5, Tumor Site: Type of Lesion: Pancreas: Pancreatic islet adenomas (4/50; 9/50; 12/50; 8/50), Pancreatic islet adenomas or carcinomas (4/50, 9/50, 14/5",active; positive (statistically significant only at 25 mg/kg dose) (ntp describes as som
CCOC(=O)NCCOc1ccc(Oc2ccccc2)cc1,carcinogen call,"Species: Mouse, Strain/Sex: CD-1/Female (50/Group), Route: Oral, Dose: 0, 30, 110, 420 ppm of 96.6% fenoxycarb in diet for 80 wk, study duration 80 wk, Dose: 0, 30, 110, 420 ppm of 96.6% fenoxycarb in diet for 80 wk, study duration 80 wk",inactive; negative
same,carcinogen call,"Species: Mouse, Strain/Sex: CD-1/Male (50/Group), Route: Oral, Dose: 0, 30, 110, 420 ppm of 96.6% fenoxycarb in diet for 80 wk, study duration 80 wk, Dose: 0, 30, 110, 420 ppm of 96.6% fenoxycarb in diet for 80 wk, study duration 80 wk, Tumor Site: Type of Lesion: Lung: alveolar/bronchial adenomas and carcinomas, significant at 420 ppm only",active; positive
same,carcinogen call,"Species: Rat, Strain/Sex: Crl:CD(SD)BR/Female (50/Group), Route: Oral, Dose: 0, 200, 600, 1800 ppm of 96.6% fenoxycarb in diet for 104 wk, study duration 104 wk, Dose: 0, 200, 600, 1800 ppm of 96.6% fenoxycarb in diet for 104 wk, study duration 104 wk",inactive; negative
same,carcinogen call,"Species: Rat, Strain/Sex: Crl:CD(SD)BR/Male (50/Group), Route: Oral, Dose: 0, 200, 600, 1800 ppm of 96.6% fenoxycarb in diet for 104 wk, study duration 104 wk, Dose: 0, 200, 600, 1800 ppm of 96.6% fenoxycarb in diet for 104 wk, study duration 104 wk",inactive; negative
C=CC(=O)OCCCCCC(C)C,carcinogen call,"Species: MOUSE, Strain/Sex: C3H/MALE, Route: DERMAL, Dose: 25 µL (5% V/V) IN ACETONE APPLIED TO BACK 3 D/WK FOR LIFE (STUDY DURATION: LIFE)",inactive; negative
O=CCCl,carcinogen call,"Species: MOUSE, Strain/Sex: B6C3F1/MALE, Route: ORAL, Dose: 0, 0.1 G/L DISTILLED DRINKING WATER FOR STUDY DURATION (17 MG/KG/D) (STUDY DURATION: 104 WK), Tumor Site: Type of Lesion: LIVER: HEPATOCELLULAR CARCINOMA, HEPATOCELLULAR ADENOMA",active; positive
CCCCN(CCCCO)N=O,carcinogen call,"Species: MOUSE, Strain/Sex: B6C3F1/MALE, Route: ORAL, Dose: 0, 0.05% IN DRINKING WATER FOR 12 WK (STUDY DURATION: 20 WK), Tumor Site: Type of Lesion: BLADDER: SQUAMOUS CELL CARCINOMA",active; positive
same,carcinogen call,"Species: MOUSE, Strain/Sex: B6D2F1/FEMALE, Route: ORAL, Dose: 0, 523 MG/L IN DRINKING WATER FOR 13 WK (STUDY DURATION: 28 WK), Tumor Site: Type of Lesion: URINARY BLADDER: TUMOR",active; positive
same,carcinogen call,"Species: MOUSE, Strain/Sex: B6D2F1/MALE, Route: ORAL, Dose: 0, 0.05% IN DRINKING WATER FOR 26 WK (STUDY DURATION: 26 WK), Tumor Site: Type of Lesion: URINARY BLADDER: TRANSITIONAL CELL CARCINOMA",active; positive
same,carcinogen call,"Species: MOUSE, Strain/Sex: B6D2F1/MALE, Route: ORAL, Dose: 0, 5 MG TWICE/WK BY GAVAGE FOR 10 WK (STUDY DURATION: 30 WK), Tumor Site: Type of Lesion: URINARY BLADDER: TRANSITIONAL CELL CARCINOMA",active; positive
same,carcinogen call,"Species: MOUSE, Strain/Sex: B6D2F1/MALE, Route: ORAL, Dose: 0, 523 MG/L IN DRINKING WATER FOR 13 WK (STUDY DURATION: 28 WK), Tumor Site: Type of Lesion: URINARY BLADDER: TUMOR",active; positive
same,carcinogen call,"Species: MOUSE, Strain/Sex: DS/SHI/MALE, Route: ORAL, Dose: 0, 0.05% IN DRINKING WATER FOR 12 WK (STUDY DURATION: 20 WK), Tumor Site: Type of Lesion: BLADDER: TRANSITIONAL CELL CARCINOMA",active; positive
same,carcinogen call,"Species: MOUSE, Strain/Sex: NON/SHI/MALE, Route: ORAL, Dose: 0, 0.05% IN DRINKING WATER FOR 4 WK (STUDY DURATION: 36 WK), Tumor Site: Type of Lesion: KIDNEY: TRANSITIONAL CELL CARCINOMA PAPILLOMA, BLADDER: TRANSITIONAL CELL CARCINOMA",active; positive
same,carcinogen call,"Species: MOUSE, Strain/Sex: NON/SHI/MALE, Route: ORAL, Dose: 0, 0.05% IN DRINKING WATER FOR 12 WK (STUDY DURATION: 20 WK), Tumor Site: Type of Lesion: KIDNEY: TRANSITIONAL CELL CARCINOMA, SQUAMOUS CELL CARCINOMA, BLADDER: TRANSITIONAL CELL CARCINOMA",active; positive
same,carcinogen call,"Species: Mouse, Strain/Sex: Nrf2-/-, p53+/-, Nrf2-/-::p53+/-, and wild type, Route: Oral, Dose: 0.05% in drinking water for 8 wk, study duration 8 wk","urinary bladder: carcinoma, 63.0% in nrf2-/- mice, 75.8% in p53+/- mice, 89.6% i"
same,carcinogen call,"Species: RAT, Strain/Sex: ACI/MALE, Route: ORAL, Dose: 0, 0.05% IN DRINKING WATER FOR 4-24 WK, Tumor Site: Type of Lesion: URINARY BLADDER: PAPILLOMA, TRANSITIONAL CELL CARCINOMA, SQUAMOUS CELL CARCINOMA",active; positive
same,carcinogen call,"Species: RAT, Strain/Sex: F344/MALE, Route: ORAL, Dose: 0, 0.05% IN DRINKING WATER FOR 10 WK (STUDY DURATION: 20 WK), Tumor Site: Type of Lesion: URINARY BLADDER: TRANSITIONAL CELL CARCINOMA",active; positive
same,carcinogen call,"Species: RAT, Strain/Sex: F344/MALE, Route: ORAL, Dose: 0, 1, 5, 10, 50 PPM IN DRINKING WATER FOR 112 WK (STUDY DURATION: 112 WK), Dose: 0, 1, 5, 10, 50 PPM IN DRINKING WATER FOR 112 WK (STUDY DURATION: 112 WK), Tumor Site: Type of Lesion: BLADDER: CARCINOMA, PAPILLOMA",active; positive
O=P([O-])([O-])[O-].O=P([O-])([O-])[O-].[Pb+2].[Pb+2].[Pb+2],carcinogen call,"Species: RAT, Strain/Sex: ALBINO, Route: SUBCUTANEOUS, Dose: 20 MG 1/WK FOR UP TO 16 MO (TOTAL DOSE 40-760 MG/RAT), Tumor Site: Type of Lesion: KIDNEY: ADENOMA, PAPILLOMA, CYSTADENOMA, CARCINOMA",active; positive
same,carcinogen call,"Species: RAT, Strain/Sex: STRAIN-CB/MALE, Route: SUBCUTANEOUS/INTRAPERITONEAL, Dose: TOTAL DOSES 29, 145, 450 MG, Dose: TOTAL DOSES 29, 145, 450 MG, Tumor Site: Type of Lesion: KIDNEY: ADENOMA, ADENOCARCINOMA",active; positive
C=CN1CCCC1=O,carcinogen call,"Species: RAT, Strain/Sex: SPRAGUE-DAWLEY/ MALE, Route: INHALATION, Dose: 0, 5, 10, 20 PPM 6 HR/D 5D/WK FOR 24 MO (STUDY DURATION: 24 MO), Dose: 0, 5, 10, 20 PPM 6 HR/D 5D/WK FOR 24 MO (STUDY DURATION: 24 MO), Tumor Site: Type of Lesion: LARYNX: SQUAMOUS CELL CARCINOMA, LIVER: HEPATOCELLULAR CARCINOMA, NASAL CAVITY: ADENOCARCINOMA, ADENOMA, Tumor Site: Type of Lesion: LARYNX: SQUAMOUS CELL CARCINOMA, LIVER: HEPATOCELLULAR CARCINOMA, NASAL CAVITY: ADENOCARCINOMA, ADENOMA",active; positive
same,carcinogen call,"Species: RAT, Strain/Sex: SPRAGUE-DAWLEY/FEMALE, Route: INHALATION, Dose: 0, 5, 10, 20 PPM 6 HR/D 5 D/WK FOR 24 MO (STUDY DURATION: 24 MO), Dose: 0, 5, 10, 20 PPM 6 HR/D 5 D/WK FOR 24 MO (STUDY DURATION: 24 MO), Tumor Site: Type of Lesion: LARYNX: SQUAMOUS CELL CARCINOMA, LIVER: HEPATOCELLULAR CARCINOMA, NASAL CAVITY: ADENOCARCINOMA, ADENOMA, Tumor Site: Type of Lesion: LARYNX: SQUAMOUS CELL CARCINOMA, LIVER: HEPATOCELLULAR CARCINOMA, NASAL CAVITY: ADENOCARCINOMA, ADENOMA",active; positive
NC(=O)N(CCF)N=O,carcinogen call,"Species: RAT, Strain/Sex: F344/MALE, Route: GAVAGE, Dose: 0, 1.75 MG/ML (TOTAL DOSE 0; 0.2 MMOL) IN 2 ML ETHYL ACETATE AND CORN OIL (1:2) 2/WK FOR 40 WK (STUDY DURATION: LIFETIME, Dose: 0, 1.75 MG/ML (TOTAL DOSE 0; 0.2 MMOL) IN 2 ML ETHYL ACETATE AND CORN OIL (1:2) 2/WK FOR 40 WK (STUDY DURATION: LIFETIME",inactive; negative
same,carcinogen call,"Species: RAT, Strain/Sex: F344/MALE, Route: GAVAGE, Dose: 0, 1.75 MG/ML IN 0.2 ML ETHYL ACETATE AND CORN OIL 2/WK FOR 40 WK (STUDY DURATION: LIFESPAN), Tumor Site: Type of Lesion: FORESTOMACH: TUMOR",active; positive
